Test results: ChEMBL document CHEMBL1146877, “D609 blocks cell survival and induces apoptosis in neural stem cells” (Bioorg Med Chem Lett, 2006)
Active and inactive are the calls of the source. The rule behind the calls is not given here.

Legend:
Type in all cases: functional, cell-based
Conditions in all cases: Rattus norvegicus
NSC [1] = assay: Decrease in viability of NSC cells at 56.29 uM for 72 hrs in presence of bFGF
NSC [2] = assay: Induction of apoptosis in NSC cells by TUNEL assay
NSC [3] = assay: Decrease in viability of NSC cells at 37.53 uM for 48 hrs in presence of bFGF
NSC [4] = assay: Decrease in viability of NSC cells at 18.76 uM for 24 hrs in presence of bFGF
NSC [5] = assay: Induction of necrosis in NSC cells assessed as lactate dehydrogenase release at 56.29 uM within 72 hrs relative to control
NSC [6] = assay: Inhibition of reactive oxygen species accumulation in NSC cells relative to control

With S=C(S)OC1CC2CC1C1CCCC21 (stereo unspecified) as the molecule, how does the Activity (NSC [1]) read?
Its Activity is “Active”.

What about the Activity (NSC [2]) of the same molecule?
Its Activity is “Active”.

And the Activity (NSC [3])?
Its Activity is “Active”.

What about the Activity (NSC [4]) of the same molecule?
The Activity was “Active”.

And the Activity (NSC [5])?
Its Activity is “inactive”.

What about the Activity (NSC [6]) of the same molecule?
Its Activity is “Active”.
